“Also recorded” adds a separate entry of the source. Read-outs that look alike come from different tables or passages of the source.
What was measured:
U251 = experiment: tumor cell growth, U251; settings: Table 6
LN229 = experiment: [3H]-Thymidine incorporation in 96-well plates (Thy), LN229; settings: read-out: IC50 (uM), LN229 (CNS Cancer)
U87 = experiment: tumor cell growth, U87; settings: Table 6
MCF7 = experiment: tumor cell growth, MCF7; settings: Table 6
CAPAN = experiment: tumor cell growth, CAPAN; settings: Table 6
U118 = experiment: tumor cell growth, U118; settings: read-out: IC50 (uM), U118 (CNS); Table 6
A549 = experiment: tumor cell growth, A549; settings: read-out: IC50 (uM), A549 (NSCLC); Table 6
NCIH460 = experiment: Thymidine (Thy) 96 well, NCIH460; settings: read-out: IC50 (uM), NCIH460 (NSCLC)
PC3 [1] = experiment: [3H]-Thymidine incorporation in 96-well plates (Thy), PC3; settings: read-out: IC50 (uM), PC3 (Prostrate Cancer)
LN-18 = experiment: tumor cell growth, LN-18; settings: Table 6
HCT116 [2] = experiment: tumor cell growth (CTG), HCT116
HT29 [3] = experiment: Thymidine (Thy) 96 well, HT29; settings: read-out: IC50 (uM), HT29 (Colon Cancer)
HCT116 [4] = experiment: Thymidine (Thy) 96 well, HCT116; settings: read-out: IC50 (uM), HCT116 (Colon Cancer)
HEP3B [5] = experiment: tumor cell growth (CTG), HEP3B
HEP3B [6] = experiment: [3H]-Thymidine incorporation in 96-well plates (Thy), HEP3B; settings: read-out: IC50 (uM), HEP3B (Liver Cancer)
H460 = experiment: tumor cell growth (CTG), H460 / NCIH460
Du-145 = experiment: tumor cell growth, Du-145; settings: read-out: IC50 (uM), Du-145 (Prostate C); Table 6
PC3 [7] = experiment: tumor cell growth (CTG), PC3
GL261 = experiment: tumor cell growth, GL261; settings: Table 6
PANC-1 = experiment: tumor cell growth, PANC-1; settings: Table 6
MDAMB231 = experiment: tumor cell growth, MDAMB231; settings: Table 6
HT29 [8] = experiment: tumor cell growth (CTG), HT29
LN-229 = experiment: tumor cell growth (CTG), LN-229 / LN229
HEPG2 = experiment: tumor cell growth, HEPG2; settings: Table 6
A172 = experiment: tumor cell growth, A172; settings: Table 6
U87MG cells = experiment: [3H]-Thymidine incorporation in U87MG cells; type: cell-based, human; settings: compound alone
Description: (§1) Maintenance and Treatment of Cell Lines. Human HepG2 hepatocarcinoma cells and human U87MG glioma cells (ATCC, Manassas, Va.) were maintained in EMEM medium supplemented with 1% L-glutamine, 1% sodium pyruvate, 1% penicillin/streptomycin, and 10% FBS (Hyclone, Logan, Utah). The human 1321N1 astrocytoma cells (European Collection of Cell Cultures, Sigma-Aldrich) were cultured in Dulbecco's modified Eagle's medium supplemented with 10% FBS and penicillin/streptomycin. All cell lines were cultured at 37° C. in 5% CO2, and the medium was replaced every 2-3 days.
(§2) Cells were seeded in 12-well plates at approximately 50,000 cells/well and incubated at 37° C. After 24 hours, the wells were rinsed with PBS and replaced with serum-free medium containing the appropriate concentration of the test compounds. After another 24-hour incubation at 37° C., 1 μCi of [^3H]-thymidine was added to each well and incubated at 37° C. for 16 hours. [^3H]-Thymidine incorporation into DNA was monitored after the cells were washed twice with PBS and then lysed in 600 μL of 0.1N NaOH for 30 minutes with shaking. The lysate was then mixed with 3 mL of liquid scintillation cocktail (Beckman Coulter, Inc., Brea, Calif.), and radioactivity was measured by liquid scintillation counting using Beckman Coulter LS6000IC Scintillation Counter. Data are shown as CPM incorporated compared to the control cells.

Akt and ERK1/2 = experiment: phosphorylation of Akt and ERK1/2 in HepG2 cells (Western blot); type: cell-based, human; settings: 1 μM, 5, 10 and 30 minutes
Description: Western Blotting. Cells were lysed with RIPA buffer containing EGTA and EDTA (Boston BioProducts, Ashland, Mass.). The lysis buffer was mixed with a protease inhibitor cocktail (Sigma-Aldrich). Protein concentrations were measured using the bicinchoninic acid reagent (Thermo-Pierce Biotechnology, Inc., Rockford, Ill.). […] Western blots were performed according to standard methods. The visualization of immunoreactive bands was performed using the ECL Plus Western Blotting Detection System (GE Healthcare, NJ) and their quantification was done by volume densitometry using Image J software and normalization to β-actin. […] The antibodies were used at a dilution recommended by the manufacturer.

HepG2 cells [9] = experiment: Cell cycle analysis by flow cytometry in HepG2 cells; type: cell-based, human; settings: HepG2, 1 μM, up to 24 hours
Description: Cell Cycle Analysis. Cell cycle distributions were performed by flow cytometry on propidium iodide-stained nuclei prepared by the NIM technique. DNA histograms of at least 10,000 cells acquired on a Becton-Dickinson FACScanto II (BD Biosciences, San Jose, Calif.) were deconvoluted using the Multicycle program (Phoenix Flow Systems) for estimates of the percentage of cells in the G0/1, S, and G2+M phases of the cell cycle. Debris and doublets were removed from the analysis by software algorithms.

HepG2 cells [10] = experiment: Apoptosis assay (annexin V/PI flow cytometry) in HepG2 cells; type: cell-based, human; settings: HepG2, 1 μM, 24 hours
Description: Apoptosis Assay. The degree of apoptosis induced by drug treatment was assayed by flow cytometry using the Alexa Fluor® 488 annexin V/Dead Cell Apoptosis Kit (Invitrogen) following the standard manufacturer's protocol. […] Cells were subsequently harvested after a 24-hour incubation, washed in cold PBS, and resuspended in 100 μL of 1× annexin-binding buffer to maintain a density˜1×10^6 cells/mL, after which 5 μL Alexa Fluor® 488 annexin V and 1 μL 100 μg/mL propidium iodide were added to the cell suspensions. Cells were then incubated at room temperature for 15 minutes and 400 μL 1× annexin-binding buffer was added followed by gentle mixing. Stained cells were analyzed on a BDFACSCanto II flow cytometer.

HepG2 cells [11] = experiment: [3H]-Thymidine incorporation assay in HepG2 cells; type: cell-based, human
Description: as §1, §2

1321N1 cells = experiment: Mitogenesis / [3H]-thymidine incorporation in 1321N1 cells; type: cell-based, human; settings: compound alone
Description: as §1
as §2, with “[^3H]-Thymidine Incorporation Assay. Cells” for “Cells”

HepG2 cells [12] = experiment: cAMP accumulation in HepG2 cells; type: cell-based, human; settings: β-agonists at 10 μM
Description: cAMP Accumulation. HepG2 cells were seeded in 96-well plates and grown to confluency. […] The levels of cAMP accumulated in cells were determined and normalized to the amount of protein per well.

For `COc1ccc(C[C@@H](C)NC[C@H](O)c2cc(O)cc(O)c2)cc1` [RR-MF, (R,R′)-4-methoxyfenoterol], the “IC50 (uM), U251 (CNS)” value (U251) was “N.E”, the IC50 (LN229; 96 well Thy 2 days treatment) was over 50 µM and the IC50 (LN229; 96 well Tye 1 day treatment) was over 50 µM. For the same molecule, the “IC50 (uM), U87 (CNS)” value (U87) was “N.E”, the “IC50 (uM), MCF7 (Breast C)” value (MCF7) was “N.E” and the “IC50 (uM), CAPAN (Pancreatic C)” value (CAPAN) was “N.E”. The IC50 (U118) was over 50 µM, the IC50 (A549) was over 50 µM and the IC50 (NCIH460; 96 well Thy 2 days treatment) was over 50 µM. The IC50 (NCIH460; 96 well Tye 1 day treatment) was over 50 µM, the IC50 (PC3 [1]; 96 well Thy 2 days treatment) was over 50 µM and the IC50 (PC3 [1]; 96 well Tye 1 day treatment) was over 50 µM. For the same molecule, the “IC50 (uM), LN-18 (CNS)” value (LN-18) was “N.E.?”, the IC50 (HCT116 [2]; read-out: IC50 (uM), HCT116 (Colon C), Table 6) was over 50 µM and the IC50 (HCT116 [2]; read-out: IC50 (uM), HCT116 (Colon Cancer), 96 well CTG 1 day treatment) was over 50 µM. The IC50 (HCT116 [2]; read-out: IC50 (uM), HCT116 (Colon Cancer), 96 well CTG 2 days treatment) was over 50 µM, the IC50 (HCT116 [2]; read-out: IC50 (uM), HCT116 (Colon Cancer), 384well CTG 3 days treatment −1) was over 50 µM and the IC50 (HCT116 [2]; read-out: IC50 (uM), HCT116 (Colon Cancer), 384well CTG 3 days treatment −2) was over 50 µM. For the same molecule, the IC50 (HT29 [3]; 96 well Thy 2 days treatment) was over 50 µM, the IC50 (HT29 [3]; 96 well Tye 1 day treatment) was over 50 µM and the IC50 (HCT116 [4]; 96 well Thy 2 days treatment) was over 50 µM. It also gave an IC50 (HCT116 [4]; 96 well Tye 1 day treatment) of over 50 µM, an IC50 (HEP3B [5]; read-out: IC50 (uM), HEP3B (Liver C), Table 6) of over 50 µM and an IC50 (HEP3B [5]; read-out: IC50 (uM), HEP3B (Liver Cancer), 96 well CTG 1 day treatment) of over 50 µM. The IC50 (HEP3B [5]; read-out: IC50 (uM), HEP3B (Liver Cancer), 96 well CTG 2 days treatment) was over 50 µM, the IC50 (HEP3B [5]; read-out: IC50 (uM), HEP3B (Liver Cancer), 384well CTG 3 days treatment −1) was over 50 µM and the IC50 (HEP3B [5]; read-out: IC50 (uM), HEP3B (Liver Cancer), 384well CTG 3 days treatment −2) was over 50 µM. The IC50 (HEP3B [6]; 96 well Thy 2 days treatment) was 2.35 µM, the IC50 (HEP3B [6]; 96 well Tye 1 day treatment) was 2.4 µM and the IC50 (H460; read-out: IC50 (uM), H460 (NSCLC), Table 6) was over 50 µM. It also gave an IC50 (H460; read-out: IC50 (uM), NCIH460 (NSCLC), 96 well CTG 1 day treatment) of over 50 µM, an IC50 (H460; read-out: IC50 (uM), NCIH460 (NSCLC), 96 well CTG 2 days treatment) of over 50 µM and an IC50 (H460; read-out: IC50 (uM), NCIH460 (NSCLC), 384well CTG 3 days treatment −1) of over 50 µM. For the same molecule, the IC50 (H460; read-out: IC50 (uM), NCIH460 (NSCLC), 384well CTG 3 days treatment −2) was over 50 µM, the IC50 (Du-145) was over 50 µM and the IC50 (PC3 [7]; read-out: IC50 (uM), PC3 (Prostate C), Table 6) was over 50 µM. It also gave an IC50 (PC3 [7]; read-out: IC50 (uM), PC3 (Prostrate Cancer), 96 well CTG 1 day treatment) of over 50 µM, an IC50 (PC3 [7]; read-out: IC50 (uM), PC3 (Prostrate Cancer), 96 well CTG 2 days treatment) of over 50 µM and an IC50 (PC3 [7]; read-out: IC50 (uM), PC3 (Prostrate Cancer), 384well CTG 3 days treatment −1) of over 50 µM. For the same molecule, the “IC50 (uM), GL261 (CNS)” value (GL261) was “N.E.?”, the “IC50 (uM), PANC-1 (Pancreatic C)” value (PANC-1) was “N.E” and the “IC50 (uM), MDAMB231 (Breast C)” value (MDAMB231) was “N.E”. It also gave an IC50 (HT29 [8]; read-out: IC50 (uM), HT29 (Colon C), Table 6) of over 50 µM, an IC50 (HT29 [8]; read-out: IC50 (uM), HT29 (Colon Cancer), 96 well CTG 1 day treatment) of over 50 µM and an IC50 (HT29 [8]; read-out: IC50 (uM), HT29 (Colon Cancer), 96 well CTG 2 days treatment) of over 50 µM. The IC50 (HT29 [8]; read-out: IC50 (uM), HT29 (Colon Cancer), 384well CTG 3 days treatment −1) was over 50 µM, the IC50 (LN-229; read-out: IC50 (uM), LN229 (CNS Cancer), 96 well CTG 1 day treatment) was over 50 µM and the IC50 (LN-229; read-out: IC50 (uM), LN229 (CNS Cancer), 96 well CTG 2 days treatment) was over 50 µM. The IC50 (LN-229; read-out: IC50 (uM), LN229 (CNS Cancer), 384well CTG 3 days treatment −1) was over 50 µM, the IC50 (LN-229; read-out: IC50 (uM), LN-229 (CNS), Table 6) was over 50 µM and the “IC50 (uM), HEPG2 (Liver C)” value (HEPG2) was “N.E”. For the same molecule, the “IC50 (uM), A172 (CNS)” value (A172) was “N.E.?”.
For `C[C@H](Cc1ccc(O)cc1)NC[C@H](O)c1cc(O)cc(O)c1` [(R,R′)-Fen, (R,R′)-Fenoterol], the “effect on cellular proliferation” value (U87MG cells) was “had no effect”, the “Akt and ERK activation” value (Akt and ERK1/2) was “induced a time-dependent increase in Akt and ERK activation” and the “cell cycle / sub-G1 events” value (HepG2 cells [9]) was “no significant alterations of the cell cycle; also recorded: No significant increase in sub-G1 events”. For the same molecule, the “apoptosis compared to control” value (HepG2 cells [10]) was “markedly reduced apoptosis”, the “% Change in HepG2 cells ([3H]-thymidine incorporation)” value (HepG2 cells [11]; 1 μM, 24 h) was 51.3% and the EC50 (HepG2 cells [11]; Homo sapiens, HepG2, read-out: IC50/EC50 (μM): EC50 (ED50) for increase in [3H]-thymidine incorporation) was 1.17 ± 0.37 µM. For the same molecule, the “effect on proliferation / [3H]-thymidine incorporation” value (1321N1 cells) was “reduced proliferation in 1321N1 cells” and the “cAMP production” value (HepG2 cells [12]) was “Neither (R)-isoproterenol nor (R,R′)-Fen, at 10 μM, elicited an increase in cAMP production”.
